Test results taken from publication PMC10720709, “Design, synthesis, and evaluation of 4-(3-(3,5-dimethylisoxazol-4-yl)benzyl)phthalazin-1(2H)-one derivatives: potent BRD4 inhibitors with anti-breast cancer activity” (Frontiers in Pharmacology, 2023).
Read-outs that look alike come from different tables or passages of the source.

What was measured:
MDA-MB-468 cells = test: MTT cell viability assay, MDA-MB-468; type: cell-based; conditions: Homo sapiens, read-out: Cytotoxicity IC50
Description: (§1) MDA-MB-468, MDA-MB-231, and MCF-7 cell lines were sourced from the National Collection of Authenticated Cell Culture, China. Cells were maintained in DMEM medium supplemented with 10% FBS and 1% penicillin/streptomycin, and incubated at 37°C in a humidified atmosphere containing 5% CO2.
(§2) The viability of cells was assessed using the MTT assay. Cells were seeded at a density of 3×10^3 cells per well in a 96-well plate and treated with varying concentrations (0.05, 0.2, 0.8, 3.2, 6.4, 12.8 µM) of the compounds for 72 h. Post-incubation, 100 µL of MTT solution (0.5 mg/mL) was added to each well and further incubated for 4 h. The resulting formazan crystals were dissolved in 150 µL DMSO, and the absorbance was measured at 570 nm using a microplate reader.

MDA-MB-231 cells = test: MTT cell viability assay, MDA-MB-231; type: cell-based; conditions: Homo sapiens, read-out: Cytotoxicity IC50
Description: as §1, §2

MCF-7 cells [1] = test: MTT cell viability assay, MCF-7; type: cell-based; conditions: Homo sapiens, read-out: Cytotoxicity IC50
Description: as §1, §2

PARP1 = PARP1 (Homo sapiens, UniProt P09874); test: PARP1 enzymatic activity ELISA; type: biochemical; conditions: 0.5 μmol/L; read-out: PARP1 inhibition rate
PARP1, sequence (P09874 whole entry): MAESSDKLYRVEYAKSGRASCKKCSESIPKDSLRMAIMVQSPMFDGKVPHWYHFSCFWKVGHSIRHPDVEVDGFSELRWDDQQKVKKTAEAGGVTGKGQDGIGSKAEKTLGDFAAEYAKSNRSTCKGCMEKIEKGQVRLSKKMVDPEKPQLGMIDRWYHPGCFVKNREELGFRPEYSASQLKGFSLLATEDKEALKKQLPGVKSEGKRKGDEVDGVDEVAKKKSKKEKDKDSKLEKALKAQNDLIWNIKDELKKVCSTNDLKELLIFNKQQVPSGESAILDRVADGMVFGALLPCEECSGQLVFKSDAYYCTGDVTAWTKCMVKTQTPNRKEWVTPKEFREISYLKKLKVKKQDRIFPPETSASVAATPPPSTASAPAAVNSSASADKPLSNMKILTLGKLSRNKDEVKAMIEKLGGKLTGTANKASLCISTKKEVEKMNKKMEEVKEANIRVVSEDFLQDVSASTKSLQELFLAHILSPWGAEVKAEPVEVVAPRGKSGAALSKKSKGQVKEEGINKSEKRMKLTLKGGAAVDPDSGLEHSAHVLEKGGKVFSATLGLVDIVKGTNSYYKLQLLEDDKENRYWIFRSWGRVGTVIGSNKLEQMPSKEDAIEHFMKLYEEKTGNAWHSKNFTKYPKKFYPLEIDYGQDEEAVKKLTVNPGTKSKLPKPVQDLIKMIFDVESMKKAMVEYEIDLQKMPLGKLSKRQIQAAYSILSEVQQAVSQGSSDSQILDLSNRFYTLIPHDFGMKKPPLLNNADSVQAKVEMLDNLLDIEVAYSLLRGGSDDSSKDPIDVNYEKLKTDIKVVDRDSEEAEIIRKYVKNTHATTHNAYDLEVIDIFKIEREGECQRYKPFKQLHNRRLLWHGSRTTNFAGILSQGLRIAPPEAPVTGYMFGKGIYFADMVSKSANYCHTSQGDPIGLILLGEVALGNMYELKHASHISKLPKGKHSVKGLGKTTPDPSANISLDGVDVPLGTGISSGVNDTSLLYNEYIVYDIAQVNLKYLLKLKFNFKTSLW
Description: The inhibition of PARP1 enzymatic activity by the tested compounds was gauged using an ELISA in 96-well plates. Each well was pre-coated with histone (20 μg/mL) in 100 μL of PBS buffer and incubated overnight at 4 °C. […] This was followed by the addition of 5 μL of either the compound at varying concentrations or a solvent control. The reaction was initiated by adding 20 μL of PARP (50 ng/well) and incubating at 30°C for 1 h. Post-reaction, 50 µL of streptavidin-conjugated HRP was introduced, and the assay continued at 30°C for an additional 30 min. Finally, 100 μL of a solution containing H2O2 and luminol in 0.1 M citrate buffer (pH 5.4) was added, and the luminescent signal was recorded using a Molecular Devices SpectraMax M5 microplate reader.

[2] = biological target: T1, recombinant BRD4 (BD1 + BD2) (Homo sapiens, UniProt O60885); test: BRD4 TR-FRET activity assay; type: binding; conditions: for inhibition at 1 µM: 1 μmol/L, read-out: BRD4 inhibition rate; for IC50: TR-FRET, BRD4 (BD1 + BD2);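 on all read-outs here: signal rises with BET ligand binding to the bromodomains, so inhibitors lower it, 120 min incubation at room temperature, 1% DMSO, wells lacking ligand as negative control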
T1 construct: employing a recombinant BRD4 (BD1 + BD2) and its corresponding ligand
Description: The BRD4 activity assay utilized TR-FRET technology, employing a recombinant BRD4 (BD1 + BD2) and its corresponding ligand. The TR-FRET signal generated in the assay is proportional to the ligand’s binding to the bromodomains. All reactions contained a final DMSO concentration of 1%. All binding reactions were conducted at room temperature. Each 20 µL reaction mixture, in assay buffer, comprised bromodomains, the BET Ligand, and the specified inhibitor amount. For the negative control, 5 µL of assay buffer replaced the BET ligand. After a 120-min incubation with the ligand, the TR-FRET signal was captured using a Tecan Infinite M1000 plate reader. IC50 values were determined through nonlinear regression with a normalized dose-response fit in Prism GraphPad software.

MCF-7 cells [3] = test: Wound scratch cell migration assay; type: cell-based; conditions: MCF-7, wound scratch, 1 μM, 48 h
Description: MCF-7 cells were seeded in 6-well plates at a density of 5×10^5 cells/well and incubated overnight. A scratch was made in the cell monolayer using a 10 µL pipette tip. […] Images were captured at 0, 12, 24, and 48-h intervals.

MCF-7 cells [4] = test: Cell cycle analysis (PI, flow cytometry); type: cell-based; conditions: MCF-7, 48 h
Description: The cell cycle distribution was assessed using the DNA Content Quantitation Assay Kit (Solarbio, China). […] After treatment, cells were harvested, fixed in ice-cold 70% ethanol overnight at 4°C, and subsequently washed with PBS. Cells were then treated with 100 μL RNase at 37°C for 30 min and stained with 400 μL PI for 30 min at 4°C in the dark. The cell cycle distribution was analyzed using an Accuri C6 Plus flow cytometer (BD Bioscience, CA), and data interpretation was performed with FlowJo software.

| SMILES | melting point [°C] | inhibition at 1 µM [2] [%] | also measured |
| --- | --- | --- | --- |
| Cc1noc(C)c1-c1cc(Cc2n[nH]c(=O)c3ccccc23)cc(C(=O)N2CC[C@H](O)C2)c1 [DDT14] | 204 to 205 | 74 | IC50 (MDA-MB-468 cells; MDA-MB-468, MTT, 72 h): 14.4 µM; IC50 (MDA-MB-231 cells; MDA-MB-231, MTT, 72 h): 8.29 µM; IC50 (MCF-7 cells [1]; MCF7, MCF-7, MTT, 72 h): > 20 µM; inhibition at 0.5 µM (PARP1): 53%; IC50 [2]: 1.1 ± 0.45 µM |
| Cc1ccccc1C(=O)Nc1cc(Cc2n[nH]c(=O)c3ccccc23)cc(-c2c(C)noc2C)c1 [DDT23] | – | 97 | IC50 (MDA-MB-468 cells; MDA-MB-468, MTT, 72 h): 10.6 µM; IC50 (MDA-MB-231 cells; MDA-MB-231, MTT, 72 h): 8.83 µM; IC50 (MCF-7 cells [1]; MCF7, MCF-7, MTT, 72 h): 18.7 µM |
| Cc1cccc(C(=O)Nc2cc(Cc3n[nH]c(=O)c4ccccc34)cc(-c3c(C)noc3C)c2)c1 [DDT24] | > 250 | 91 | IC50 (MDA-MB-468 cells; MDA-MB-468, MTT, 72 h): 9.09 µM; IC50 (MDA-MB-231 cells; MDA-MB-231, MTT, 72 h): 8.23 µM; IC50 (MCF-7 cells [1]; MCF7, MCF-7, MTT, 72 h): 12.8 µM; IC50 [2]: 1.88 ± 0.6 µM |
| Cc1ccc(C(=O)Nc2cc(Cc3n[nH]c(=O)c4ccccc34)cc(-c3c(C)noc3C)c2)cc1 [DDT25] | – | 76 | IC50 (MDA-MB-468 cells; MDA-MB-468, MTT, 72 h): 6.5 µM; IC50 (MDA-MB-231 cells; MDA-MB-231, MTT, 72 h): 11.6 µM; IC50 (MCF-7 cells [1]; MCF7, MCF-7, MTT, 72 h): 12.5 µM |
| CC(=O)Nc1cccc(CNc2cc(Cc3n[nH]c(=O)c4ccccc34)cc(-c3c(C)noc3C)c2)c1 [DDT47] | – | 78 | IC50 (MDA-MB-468 cells; MDA-MB-468, MTT, 72 h): 9.39 µM; IC50 (MDA-MB-231 cells; MDA-MB-231, MTT, 72 h): 17.1 µM; IC50 (MCF-7 cells [1]; MCF7, MCF-7, MTT, 72 h): 11.7 µM |
| CC(=O)Nc1ccc(CNc2cc(Cc3n[nH]c(=O)c4ccccc34)cc(-c3c(C)noc3C)c2)cc1 [DDT48] | – | 96 | IC50 (MDA-MB-468 cells; MDA-MB-468, MTT, 72 h): 9.09 µM; IC50 (MDA-MB-231 cells; MDA-MB-231, MTT, 72 h): 8.77 µM; IC50 (MCF-7 cells [1]; MCF7, MCF-7, MTT, 72 h): > 20 µM; IC50 [2]: 0.46 ± 0.17 µM |
| Cc1noc(C)c1-c1cc(Cc2n[nH]c(=O)c3ccccc23)cc(NCc2cccc(N)c2)c1 [DDT49] | – | 72 | inhibition at 0.5 µM (PARP1): 50%; IC50 [2]: 0.585 ± 0.225 µM |
| Cc1ccc(S(=O)(=O)Nc2cc(Cc3n[nH]c(=O)c4ccccc34)cc(-c3c(C)noc3C)c2)cc1 [DDT59] | – | 75 | IC50 (MDA-MB-468 cells; MDA-MB-468, MTT, 72 h): 11 µM; IC50 (MDA-MB-231 cells; MDA-MB-231, MTT, 72 h): 7.44 µM; IC50 (MCF-7 cells [1]; MCF7, MCF-7, MTT, 72 h): > 20 µM; inhibition at 0.5 µM (PARP1): 8%; IC50 [2]: 0.909 ± 0.396 µM |
| Cc1cc(C)cc(S(=O)(=O)Nc2cc(Cc3n[nH]c(=O)c4ccccc34)cc(-c3c(C)noc3C)c2)c1 [DDT60] | 155 to 156 | 28 | – |
| CCc1ccc(S(=O)(=O)Nc2cc(Cc3n[nH]c(=O)c4ccccc34)cc(-c3c(C)noc3C)c2)cc1 [DDT62] | 202 to 203 | 67 | – |
| CCCc1ccc(S(=O)(=O)Nc2cc(Cc3n[nH]c(=O)c4ccccc34)cc(-c3c(C)noc3C)c2)cc1 [DDT63] | 148 to 149 | 51 | – |
| Cc1noc(C)c1-c1cc(Cc2n[nH]c(=O)c3ccccc23)cc(NS(=O)(=O)c2ccc(C(C)(C)C)cc2)c1 [DDT65] | 154 to 155 | 44 | – |
| COc1cccc(S(=O)(=O)Nc2cc(Cc3n[nH]c(=O)c4ccccc34)cc(-c3c(C)noc3C)c2)c1 [DDT68] | 184 to 185 | 59 | – |
| COc1ccc(S(=O)(=O)Nc2cc(Cc3n[nH]c(=O)c4ccccc34)cc(-c3c(C)noc3C)c2)cc1 [DDT69] | 155 to 156 | 70 | – |
| COc1ccc(S(=O)(=O)Nc2cc(Cc3n[nH]c(=O)c4ccccc34)cc(-c3c(C)noc3C)c2)cc1OC [DDT70] | 165 to 166 | 32 | – |
| CC(=O)Nc1cccc(S(=O)(=O)Nc2cc(Cc3n[nH]c(=O)c4ccccc34)cc(-c3c(C)noc3C)c2)c1 [DDT72] | 192 to 193 | 4 | – |

| SMILES | melting point [°C] | inhibition at 1 µM [2] [%] | also measured |
| --- | --- | --- | --- |
| Cc1noc(C)c1-c1cc(Cc2n[nH]c(=O)c3ccccc23)cc(NS(=O)(=O)c2ccc(OCc3ccccc3)cc2)c1 [DDT74] | 148 to 149 | 34 | – |
| Cc1noc(C)c1-c1cc(Cc2n[nH]c(=O)c3ccccc23)cc(NS(=O)(=O)c2ccc3c(c2)CCO3)c1 [DDT75] | 162 to 163 | 42 | – |
| Cc1cccc(CS(=O)(=O)Nc2cc(Cc3n[nH]c(=O)c4ccccc34)cc(-c3c(C)noc3C)c2)c1 [DDT77] | 154 to 155 | 38 | – |
| Cc1noc(C)c1-c1cc(Cc2n[nH]c(=O)c3ccccc23)cc(NS(=O)(=O)c2ccc(O)cc2)c1 [DDT79] | 238 to 239 | 7 | – |
| Cc1noc(C)c1-c1cc(Cc2n[nH]c(=O)c3ccccc23)cc(NS(=O)(=O)c2ccccc2C(F)(F)F)c1 [DDT80] | 197 to 198 | 15 | – |
| Cc1noc(C)c1-c1cc(Cc2n[nH]c(=O)c3ccccc23)cc(NS(=O)(=O)c2ccc(C(F)(F)F)cc2)c1 [DDT82] | 193 to 194 | 24 | – |
| Cc1noc(C)c1-c1cc(Cc2n[nH]c(=O)c3ccccc23)cc(NS(=O)(=O)c2ccc(F)cc2)c1 [DDT86] | 151 to 152 | 7 | – |
| Cc1noc(C)c1-c1cc(Cc2n[nH]c(=O)c3ccccc23)cc(NS(=O)(=O)c2ccccc2Cl)c1 [DDT87] | 174 to 175 | 72 | – |
| Cc1noc(C)c1-c1cc(Cc2n[nH]c(=O)c3ccccc23)cc(NS(=O)(=O)c2cccc(Cl)c2)c1 [DDT88] | 142 to 143 | 17 | – |
| Cc1noc(C)c1-c1cc(Cc2n[nH]c(=O)c3ccccc23)cc(NS(=O)(=O)c2ccc(Cl)cc2)c1 [DDT89] | 147 to 148 | 72 | – |
| Cc1noc(C)c1-c1cc(Cc2n[nH]c(=O)c3ccccc23)cc(NS(=O)(=O)c2ccccc2Br)c1 [DDT91] | 171 to 172 | 8 | – |
| Cc1noc(C)c1-c1cc(Cc2n[nH]c(=O)c3ccccc23)cc(NS(=O)(=O)c2cccc(Br)c2)c1 [DDT92] | 147 to 148 | 4 | – |
| Cc1noc(C)c1-c1cc(Cc2n[nH]c(=O)c3ccccc23)cc(NS(=O)(=O)c2cccc(S(C)(=O)=O)c2)c1 [DDT94] | 243 to 244 | 5 | – |
| Cc1sc2c(c1C)C(c1ccc(Cl)cc1)=N[C@@H](CC(=O)OC(C)(C)C)c1nnc(C)n1-2 [JQ1, reference compound] | – | – | inhibition of cell migration (in words) (MCF-7 cells [3]): most potent inhibitory effect; IC50 (MDA-MB-468 cells; MDA-MB-468, 72 h): 3.24 µM; IC50 (MDA-MB-231 cells; MDA-MB-231, 72 h): 4.83 µM; IC50 (MCF-7 cells [1]; MCF7, 72 h): 18.4 µM |
| O=C(c1cc(Cc2n[nH]c(=O)c3ccccc23)ccc1F)N1CCN(C(=O)C2CC2)CC1 [Olaparib, reference compound] | – | – | inhibition of cell migration (in words) (MCF-7 cells [3]): no inhibitory activity; IC50 (MDA-MB-468 cells; MDA-MB-468, MTT, 72 h): 8.09 µM; IC50 (MDA-MB-231 cells; MDA-MB-231, MTT, 72 h): 8.17 µM; IC50 (MCF-7 cells [1]; MCF7, MCF-7, MTT, 72 h): 8.7 µM; effect on cell cycle (in words) (MCF-7 cells [4]): did not influence the MCF-7 cell cycle |
